Where a SMILES comes first, the peptide text is derived from it. [ ]: non-standard residue; d: D form. Aun = NCCCCCCCCCCC(=O)O
Legend:
[1] = target: Peptide N-myristoyltransferase (Candida albicans)
[2] = Selectivity is the ratio of the IC50 against human NMT to the IC50 against Candida albicans NMT.; type: functional
[3] = target: Peptide N-myristoyltransferase (Candida albicans); remark: listed apart in the source
[4] = target: T1, Peptide N-myristoyltransferase (Homo sapiens, UniProt P30419+O60551); assay: Inhibitory activity against human N-Myristoyltransferase (NMT).; type: protein assay
T1 sequence (P30419 whole entry): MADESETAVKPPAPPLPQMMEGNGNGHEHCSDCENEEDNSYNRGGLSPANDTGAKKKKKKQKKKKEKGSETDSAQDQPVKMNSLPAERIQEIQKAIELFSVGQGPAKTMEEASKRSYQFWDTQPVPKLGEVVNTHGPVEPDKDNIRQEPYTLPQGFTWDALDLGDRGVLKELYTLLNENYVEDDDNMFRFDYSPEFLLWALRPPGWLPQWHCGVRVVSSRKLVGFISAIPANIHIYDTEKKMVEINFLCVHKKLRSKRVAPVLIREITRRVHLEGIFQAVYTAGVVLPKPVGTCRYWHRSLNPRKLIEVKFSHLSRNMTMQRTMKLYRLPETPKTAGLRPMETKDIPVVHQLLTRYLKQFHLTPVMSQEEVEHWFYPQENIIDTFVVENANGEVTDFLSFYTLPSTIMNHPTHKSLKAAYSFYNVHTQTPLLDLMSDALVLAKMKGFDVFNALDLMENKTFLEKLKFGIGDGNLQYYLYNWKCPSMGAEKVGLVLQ
T1 sequence (O60551 whole entry): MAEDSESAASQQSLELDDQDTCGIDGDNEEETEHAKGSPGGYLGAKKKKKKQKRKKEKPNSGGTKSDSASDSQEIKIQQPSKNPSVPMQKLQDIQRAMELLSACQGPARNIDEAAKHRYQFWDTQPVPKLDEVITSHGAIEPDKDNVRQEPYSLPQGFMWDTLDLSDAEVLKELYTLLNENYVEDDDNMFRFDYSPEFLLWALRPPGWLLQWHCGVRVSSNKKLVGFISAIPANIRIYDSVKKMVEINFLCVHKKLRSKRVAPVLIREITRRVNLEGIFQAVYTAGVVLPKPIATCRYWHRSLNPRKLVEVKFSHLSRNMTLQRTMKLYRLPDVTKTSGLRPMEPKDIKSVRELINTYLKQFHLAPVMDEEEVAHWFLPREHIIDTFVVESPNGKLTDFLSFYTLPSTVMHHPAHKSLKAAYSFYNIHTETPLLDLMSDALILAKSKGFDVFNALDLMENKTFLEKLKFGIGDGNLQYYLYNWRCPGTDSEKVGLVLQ

[5] = target: T1, Peptide N-myristoyltransferase; assay: Apparent binding affinity against Human NMT.; type: protein assay

Work on `NCCCC[C@H](NC(=O)[C@H](CO)NC(=O)Cc1ccc(CCCCn2ccnc2)cc1)C(=O)NCCC1CCCCC1` yielded an IC50 [1] of 420 nM, a Selectivity [2] of 38 and a Ki [3] of 590 nM. The IC50 [4] was 16000 nM.
Molecule `NCCCC[C@H](NC(=O)[C@H](CO)NC(=O)CCCCCCCCCCn1ccnc1)C(=O)NCCC1CCCCC1` has an IC50 [1] of 1600 nM, a Selectivity [2] of 7.1 and a Ki [3] of 760 nM. It also gave an IC50 [4] of 11400 nM and a Ki [5] of 4200 nM.
`NCCCCCCCCCCC(=O)N[C@@H](CO)C(=O)N[C@@H](CCCCN)C(=O)NCCC1CCCCCCC1` gave an IC50 [1] of 300 nM, a Selectivity [2] of 3.8 and a Ki [3] of 130 nM. It also gave an IC50 [4] of 1140 nM.
For `CC(C)CCNC(=O)[C@H](CCCCN)NC(=O)[C@H](CO)NC(=O)CCCCCCCCCCN`, the IC50 [1] was 780 nM, the Selectivity [2] was 0.5 and the IC50 [4] was 420 nM.
`CC(C)C[C@H](NC(=O)[C@H](CCCCN)NC(=O)[C@H](CO)NC(=O)CCCCCCCCCCN)C(N)=O` (H-[Aun]SKL-NH2) showed an IC50 [1] of 1200 nM, a Selectivity [2] of 0.2 and an IC50 [4] of 230 nM.
